Results taken from PubChem BioAssay AID1417 (Emory University Molecular Libraries Screening Center, 2008).

Target: Induced myeloid leukemia cell differentiation protein Mcl-1 (Homo sapiens) (UniProt Q07820)
Assay: Mcl-1 Noxa peptide disruption concentration-response – biochemical, TR-FRET, dose response (AID 1417)
Conditions: Mcl-1/Noxa peptide interaction, cell-free TR-FRET (terbium/rhodamine), 2 h; measured here: absolute IC50

Chain of Induced myeloid leukemia cell differentiation protein Mcl-1 (Homo sapiens) (Q07820 whole entry, looked up): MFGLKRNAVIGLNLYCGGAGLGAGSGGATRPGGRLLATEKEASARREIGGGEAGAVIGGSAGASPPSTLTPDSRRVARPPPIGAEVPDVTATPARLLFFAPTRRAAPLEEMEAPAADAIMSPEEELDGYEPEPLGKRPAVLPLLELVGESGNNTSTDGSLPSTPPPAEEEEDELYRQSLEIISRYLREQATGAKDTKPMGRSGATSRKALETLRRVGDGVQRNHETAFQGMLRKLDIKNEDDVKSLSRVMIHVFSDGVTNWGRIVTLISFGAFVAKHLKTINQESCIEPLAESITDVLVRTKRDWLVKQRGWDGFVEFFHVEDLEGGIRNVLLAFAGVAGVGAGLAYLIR

Structure (SMILES) | IC50 [µM]
O=C(NC1CCCCC1)c1sc(=S)n2c1[nH]c(=O)c1ccccc12 | 15.9
NC(=S)n1[nH]c(-c2ccc([N+](=O)[O-])cc2)c(N=Nc2ccc(Cl)cc2)c1=O | < 0.4
O=C(ONc1ccc(N=NC(=O)c2ccccc2O)cc1)c1ccccc1 | 13
O=C1/C(=C/c2ccco2)SC(=S)N1c1cccnc1 | > 54
Cc1cccc(NC(=O)CN2C(=O)N/C(=C/c3ccc(C)o3)C2=O)c1 | > 54
Cc1ccc(/C=C2/SC(=O)NC2=S)o1 | 4.11
CCN(CC)S(=O)(=O)c1cc(NC(=O)Cn2ncc(Cl)c(Cl)c2=O)ccc1C | 3.26
C=CCN=c1scc(-c2ccco2)n1/N=C/c1ccc(O)c(O)c1O | > 54
Cn1c(=O)c(C(=O)COC(=O)c2cc(-c3ccco3)nc3ccccc23)c(N)n(CC2CC2)c1=O | 0.449
O=C1NN(c2ccc(Cl)cc2)C(=O)/C1=C\c1ccc(-c2cccc(C(=O)O)c2)o1 | 0.894
C=C(C)C(=O)Nc1cccc(C2=NOC3(C2)C[C@H](C(N)=O)N(C(=O)C(c2ccccc2)c2ccccc2)C3)c1 (stereo not given in full) | 4.43
N#C/C(=C\c1ccc(C(=O)O)cc1)c1nc2sc3c(c2c(=O)[nH]1)CCCC3 | 2.95
O=C(O)CCn1cc(C=C2C(=O)NC(=S)NC2=O)c(-c2cc3ccccc3oc2=O)n1 | 3.08
CN1C(=O)/C(=C2\SC(=S)N(CCCCCC(=O)O)C2=O)c2ccccc21 | 2.85
CC(C(=O)NC1CCCC1)N(Cc1ccco1)C(=O)c1snc(C(=O)NC2CCCC2)c1N (stereo not given) | > 54
O=C(/C=C1\NC2(CCCC2)Cc2ccccc21)C(=O)N/N=C/c1ccc(O)c(O)c1 | 3.47
Cc1ccc(/C=c2\sc3nc(-c4ccco4)nn3c2=O)o1 | 6.14
O=C1/C(=C/C=C/c2ccco2)SC(=S)N1c1ccc(O)cc1 | < 0.4
C/C(=C\c1ccco1)C1Nc2cccc3cccc(c23)N1 | 3.68
CN(C)c1ccc(Sc2nnc(NC(=O)Nc3ccc(Cl)cc3Cl)s2)cc1 | 3.46
Cc1c(N=Nc2c(-c3ccc([N+](=O)[O-])cc3)[nH]n(C(N)=S)c2=O)cccc1[N+](=O)[O-] | < 0.4
Cc1ccc(NC2=C(NC(=O)c3ccccc3)C(=O)c3ccccc3C2=O)cc1Cl | 3.9
CCOC(=O)c1ccc2c(c1)C1C=CCC1C(C(=O)O)N2 (stereo not given) | < 0.4
CCCCn1c(SCC(=O)NCCOC)nc2ccc(N3CCOCC3)cc2c1=O | > 54
Cc1ccc(-c2cc(C(=O)N3CCN(c4ncccn4)CC3)c3cc(Br)ccc3n2)o1 | 3.78
O=C1OCC2OC(O)C(O)C(O)C2OC(=O)c2cc(O)c(O)c(O)c2-c2c(O)c(O)c3oc(=O)c4c(c(O)c(O)c5oc(=O)c2c3c54)-c2c1cc(O)c(O)c2O (stereo not given) | < 0.4
CC(=O)c1ccc(NC(=O)CSc2ccsc2[N+](=O)[O-])cc1 | > 54

Structure (SMILES) | IC50 [µM]
COc1ccc(C2=NN(c3nc(-c4ccccc4)c(CC(=O)O)s3)C(c3ccco3)C2)cc1 (stereo not given) | 11.9
CC(/C=N\Nc1nnc2c(n1)[nH]c1c(C)cccc12)=C\c1ccco1 | 3.57
CCOC(=O)c1c(CSc2ccc(C)cc2)n(C)c2cc(Br)c(O)c(CN(C)C)c12 | 3.33
O=S(=O)(Nc1cc(Sc2ncn[nH]2)c(O)c2ccccc12)c1ccccc1 | < 0.4
O=C(O)Cc1c[nH]c2cccc(O)c12 | 0.81
COc1cc(/C=C2\SC(=O)N(Cc3ccc(F)cc3)C2=O)cc([N+](=O)[O-])c1O | 7.01
COc1ccccc1NC1=C(NC(C)=O)C(=O)c2ccccc2C1=O | 2.48
CCN(CC)C(=O)COC(=O)c1cc(-c2ccco2)nc2ccccc12 | < 0.4
Cc1cc(N/N=C/c2ccc(O)c(C)c2O)nc(-c2ccccc2O)n1 | 3.66
Cc1ccc(-n2c(O)c(C=Nc3ccccc3-c3n[nH]c(=S)[nH]c3=O)c3ccccc3c2=O)cc1C | 2.75
COc1ccc(N=C2S/C(=C\c3ccc(OC(C)C(=O)O)c(OC)c3)C(=O)N2CCc2c[nH]c3ccccc23)cc1 (stereo not given) | 7.31
Cc1ccc(N2CC(C(=O)Nc3ccc(N(C)C)cc3)CC2=O)cc1C (stereo not given) | > 54
O=C(Nc1ccc(Nc2ccncc2)cc1)c1ccc(Nc2ccnc3ccc([N+](=O)[O-])cc23)cc1[N+](=O)[O-] | 3.11
Clc1cccc(N/N=C/c2ccc(N3CCOCC3)s2)c1 | < 0.4
COC(=O)c1cc(-c2ccc(C)o2)nc2ccccc12 | 14.8
Cc1ccc(N=Nc2c(N)[nH]n3c(=O)cc(-c4ccccc4)nc23)cc1 | 14
O=C(Nc1cccc(S(=O)(=O)NC2=NCCC2)c1)c1cc(-c2ccco2)nc2ccccc12 | < 0.4
Cc1cc2nc(/C=C/c3nc4cc(C)c(C)cc4[nH]3)[nH]c2cc1C | 4.54
C=C(C)C(=O)Nc1cccc(C2=NOC3(C2)C[C@@H](C(N)=O)N(C(=O)/C=C/C=C/C)C3)c1 (stereo not given in full) | < 0.4
CN1CCN(c2ccc(Cl)cc2NC(=O)c2ccc(S(=O)(=O)N3CCCCCC3)cc2)CC1 | 3.89
COc1ccc(C2=CC(=O)C=CC2=O)cc1 | < 0.4
CCCCN(CC)CCNc1c(N2CCN(C(=O)OCC)CC2)c(=O)c1=O | 2.17
Oc1ccc(-c2cn3c(n2)SCC3)cc1O | 1.94
CN(c1ccccc1)c1ccc(/C=C(\CCC(=O)O)c2nc3ccccc3s2)cc1[N+](=O)[O-] | 1.06
Cc1ccc(/C=c2\sc3nc(-c4ccccc4Br)nn3c2=O)o1 | 4.37
CCN(CCO)c1nc(SC)nc2c1sc1nc(-c3ccco3)c3c(c12)CCC3 | < 0.4
O=C(Nc1ccc(Cl)cc1)Nc1nnc(/C=C/c2ccccc2)s1 | 4.06

Structure (SMILES) | IC50 [µM]
CC1CC(=O)c2c(cc3c(-c4c(O)cc(O)c5c(O)c6c(cc45)OC(C)CC6=O)c(O)cc(O)c3c2O)O1 (stereo not given) | < 0.4
CCCOc1ccc(C(=O)Nc2ccc(N(C)C)cc2)cc1 | > 54
O=C(CSc1ccsc1[N+](=O)[O-])Nc1cccc(F)c1 | 2.61
CN(C)c1ccc(NC(=O)/C=C/c2ccccc2Cl)cc1 | < 0.4
COC(=O)N/N=C/c1cc(N=Nc2ccccc2Cl)ccc1O | 3.74
O=[N+]([O-])c1ccc(/C=N/NC(=S)Nc2ccc(Cl)cc2Cl)s1 | 1.34
O=C(CSc1nnc(-c2ccco2)c(-c2ccco2)n1)c1ccccc1 | 3.7
O=C1NC(=O)N(Cc2ccco2)C(=O)/C1=C/c1ccc(-c2cccc([N+](=O)[O-])c2)o1 | 3.28
CCc1nnc(NC(=O)c2cc(-c3ccco3)nc3ccccc23)s1 | 2.54
Cc1ccc(/C=C/C(=O)NCc2ccccn2)o1 | 4.93
O=C(CNc1ccc2ccccc2c1)N/N=C/C=C/c1cccc([N+](=O)[O-])c1 | 7.27
N=C1/C(=C\c2ccc(-c3cccc(C(=O)O)c3)o2)C(=O)N=C2SC=C(c3ccccc3)N12 | 1.3
COCCN1Cc2cccc(C(=O)Nc3cccc(C)c3C)c2C1=O | > 54
COc1ccccc1C1C2=C(N=c3s/c(=C/c4cccc(OCC(=O)O)c4)c(=O)n31)c1ccccc1CC2 (stereo not given) | 2.15
COc1cccc2c(=S)c(CCC(C)=O)c(C)[nH]c12 | 0.718
O=C1CCCC2=C1C(c1ccco1)Nc1ccc3ccccc3c12 (stereo not given) | 2.22
COc1ccc(-c2ccc(/C=C3/C(=N)N4C=CSC4=NC3=O)o2)c([N+](=O)[O-])c1 | 1.66
CNC(=O)NC1CCCc2ccccc21 (stereo not given) | > 54
CCN(/N=C/c1ccc(N(C)C)cc1)c1nc2ccccc2[nH]1 | 2.06
CCNc1ccc(Br)cc(C(=O)/C=C/c2c(Cl)cccc2Cl)c1=O | 1.8
S=c1[nH]nc(-c2cc(-c3ccccc3)n[nH]2)n1/N=C/c1c2ccccc2cc2ccccc12 | > 54
Cc1cc(/C=C2/C(=O)NN(c3ccccc3)C2=O)c(C)n1-c1cccc(O)c1 | 3.25
COc1ccc(N2C(=O)/C(=C/C=C/c3ccccc3[N+](=O)[O-])C(=O)NC2=S)cc1 | < 0.4
COC/C=C/C1=CC2=CC(=O)C(C)(OC(=O)c3ccco3)C(=O)C2=CO1 (stereo not given) | 2.78
Cc1ccc(/C=C/C(=O)Nc2ccc([N+](=O)[O-])c(NC(=O)/C=C/c3ccc(C)o3)c2)o1 | < 0.4
CCOC(=O)c1cc(-c2ccc(/C=C3/C(=O)NC(=O)C(C#N)=C3C)o2)ccc1Cl | < 0.4
Cn1c(SCC(=O)Nc2ccc3nc(SCC(=O)N4CCCC4)sc3c2)nnc1-c1ccccc1 | 2.24

Structure (SMILES) | IC50 [µM]
CC(/C=C1\SC(=S)N(CCCC(=O)Nc2ccc(C(=O)O)c(O)c2)C1=O)=C\c1ccccc1 | < 0.4
CN=c1scc(C)n1/N=C/c1ccc(O)c(O)c1O | 1.76
O=C1Nc2ccccc2/C1=N/N=C/c1ccc(-c2ccc([N+](=O)[O-])cc2)o1 | < 0.4
O=C(O)c1cc(-c2ccc(/C=C3/SC(=S)N(Cc4ccccc4)C3=O)o2)ccc1Cl | 1.51
CCc1ccc(S(=O)(=O)/N=C2\C=CC(=O)c3ccccc32)cc1 | < 0.4
COc1cc(-c2ccc(Nc3ccccc3C(=O)O)c(OC)c2)ccc1Nc1ccccc1C(=O)O | < 0.4
COc1ccc2c(c1)CC/C(=C\Nc1ccc3c(c1)OCO3)C2=O | > 54
O=C(CCN1C(=O)S/C(=C\c2ccccc2)C1=O)Nc1ccc(S(=O)(=O)Nc2nccs2)cc1 | 7.65
CCCSC1=N/C(=C\C=C\c2ccco2)C(=O)S1 | 3.1
COc1cc(O)c(C(=O)O)c(-c2cc(O)c(O)cc2C)c1 | < 0.4
COc1ccc(/C=N/NC(=O)c2ccc(O)cc2O)cc1CSc1ccccn1 | 2.48
COc1ccccc1NC(=O)c1cc2cc(Br)ccc2cc1O | 2.11
COc1ccc(Cl)c(N2CCN(CCCNC(=O)Nc3ccc(C)cc3)CC2)c1 | 6.02
CC(=O)c1cc(O)c2ccccc2c1O | < 0.4
C=CCn1c(C)cc(C(=O)Cn2ncc(Cl)c(Cl)c2=O)c1C | 3.07
CNc1ccc(Br)cc(C(=O)/C=C/c2cccc(Cl)c2Cl)c1=O | 0.439
O=C1NC(=S)/C(=C\c2ccc(-c3ccccc3Cl)o2)S1 | 2.13
O=C1NC(=S)N(C2CC2)C(=O)/C1=C/c1ccc2c(c1)CCN2CCCCl | 0.728
COc1ccc(N2CCC(CNC(=O)Nc3ccccc3)C2)cc1 (stereo not given) | < 0.4
CCOC(=O)c1c(OCC)[nH]c2c1cc(O)c1ccccc12 | < 0.4
Nc1ccc(C2=Nc3cccc4cccc(c34)N2)cc1 | < 0.4
Cc1cccc(NC(=O)CSc2nnc(-c3ccco3)c(-c3ccco3)n2)c1 | 6.58
CCCCOC(=O)Nc1ccc(N(C)C)cc1 | 52.5
CC(C)C(C(=O)O)N1C(=O)/C(=C/C=C/c2ccco2)SC1=S (stereo not given) | < 0.4
